Source: patent publication US9695155B2, “Herbicidal substituted pyrimidinyloxy benzene compounds” (E. I. DU PONT DE NEMOURS AND COMPANY, priority 2013, dated 2017)

Assays:
giant foxtail [1] = experiment: Test A postemergence; type: in vivo, Setaria faberii
In short: (§1)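 Greenhouse pot test, loam/sand soil. Formulation: non-phytotoxic solvent mix plus surfactant. Pre: directed spray onto soil after sowing. Post: plants at 1–2 leaf, 2–10 cm. Rated visually vs untreated controls at ~10 d, 0 (no effect) to 100 (complete control).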

chickweed = experiment: Test C postemergence; type: in vivo, Stellaria media; details: for Plant response rating (0 to 100), Chickweed: postemergence; for Plant response rating, Chickweed: Postemergence, scale 0 to 100 (0 no effect, 100 complete control)
In short: (§2)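 Visual injury score versus untreated controls, 0 = no effect, 100 = complete control, taken 13 to 15 days after treatment in the greenhouse. Pre-emergence pots held loam/sand; post-emergence plants grew in sphagnum peat/vermiculite mix and were sprayed at the 1- to 4-leaf stage.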

rice = experiment: Test B flooded paddy test; type: in vivo, Oryza sativa; details: Flood, 250 g ai/ha; 0 to 100 scale where 0 is no effect and 100 is complete control
In short: (§3)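 2-leaf stage plants; pots flooded to 3 cm, compound added to paddy water, depth maintained. Greenhouse 13–15 d. Visual rating vs untreated controls, 0 (no effect) to 100 (complete control); dash = no result.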

oilseed rape = experiment: Test C postemergence; type: in vivo, Brassica napus; details: for Plant response rating (0 to 100), Oilseed Rape: postemergence; for Plant response rating, Oilseed Rape: Postemergence, scale 0 to 100 (0 no effect, 100 complete control)
In short: as §2

giant foxtail [2] = experiment: Test A preemergence; type: in vivo, Setaria faberii
In short: as §1

pigweed = experiment: Test A postemergence; type: in vivo, Amaranthus retroflexus
In short: as §1

galium = experiment: Test C postemergence; type: in vivo, Galium aparine; details: for Plant response rating (0 to 100), Galium: postemergence; for Plant response rating, Galium: Postemergence, scale 0 to 100 (0 no effect, 100 complete control)
In short: as §2

soybean = experiment: Test C postemergence; type: in vivo, Glycine max; details: for Plant response rating (0 to 100), Soybean: postemergence; for Plant response rating, Soybean: Postemergence, scale 0 to 100 (0 no effect, 100 complete control)
In short: as §2

waterhemp = experiment: Test C postemergence; type: in vivo, Amaranthus rudis; details: for Plant response rating (0 to 100), Waterhemp: postemergence; for Plant response rating, Waterhemp: Postemergence, scale 0 to 100 (0 no effect, 100 complete control)
In short: as §2

wheat = experiment: Test A preemergence; type: in vivo, Triticum aestivum
In short: as §1

Italian ryegrass = experiment: Test C postemergence; type: in vivo, Lolium multiflorum; details: for Plant response rating (0 to 100), Ryegrass, Italian: postemergence; for Plant response rating, Ryegrass, Italian: Postemergence, scale 0 to 100 (0 no effect, 100 complete control)
In short: as §2

lambsquarters = experiment: Test C postemergence; type: in vivo, Chenopodium album; details: for Plant response rating (0 to 100), Lambsquarters: postemergence; for Plant response rating, Lambsquarters: Postemergence, scale 0 to 100 (0 no effect, 100 complete control)
In short: as §2

large (Lg) crabgrass = experiment: Test A postemergence; type: in vivo, Digitaria sanguinalis
In short: as §1

barnyardgrass = experiment: Test B flooded paddy test; type: in vivo, Echinochloa crus-galli; details: Flood, 250 g ai/ha; 0 to 100 scale where 0 is no effect and 100 is complete control
In short: as §3

corn = experiment: Test A preemergence; type: in vivo, Zea mays
In short: as §1

sedge, umbrella = experiment: Test B flooded paddy test; type: in vivo, Cyperus difformis; details: Flood, 250 g ai/ha; 0 to 100 scale where 0 is no effect and 100 is complete control
In short: as §3

[3] = 125 g ai/ha, 0 to 100 scale where 0 is no effect and 100 is complete control
[4] = 500 g ai/ha, 0 to 100 scale, 0 no effect, 100 complete control
[5] = 500 g ai/ha, 0 to 100 scale, 0 no effect, 100 complete control, approx. 10 days

## N#Cc1cccc(Oc2ncc(Br)cn2)c1-n1cc(Br)cn1 [Compound 57]
Giant foxtail [1]; [3]
  Plant response rating, Foxtail, Giant: 80
Giant foxtail [1]; [4]
  Plant response rating, Foxtail, Giant: 100
chickweed; 125 g ai/ha
  Plant response rating (0 to 100), Chickweed: 80
chickweed; 250 g ai/ha
  Plant response rating (0 to 100), Chickweed: 80
chickweed; 31 g ai/ha, 13 to 15 days
  Plant response rating, Chickweed: 50
chickweed; 62 g ai/ha
  Plant response rating, Chickweed: 50
rice
  Plant response rating, Rice: 0
Oilseed rape; 125 g ai/ha
  Plant response rating (0 to 100), Oilseed Rape: 80
Oilseed rape; 250 g ai/ha
  Plant response rating (0 to 100), Oilseed Rape: 85
Oilseed rape; 31 g ai/ha, 13 to 15 days
  Plant response rating, Oilseed Rape: 30
Oilseed rape; 62 g ai/ha
  Plant response rating, Oilseed Rape: 40
Giant foxtail [2]; [3]
  Plant response rating, Foxtail, Giant: 80
Giant foxtail [2]; [5]
  Foxtail, Giant plant response rating: 100
pigweed; [3]
  Plant response rating, Pigweed: 100
pigweed; [4]
  Plant response rating, Pigweed: 100
galium; 125 g ai/ha
  Plant response rating (0 to 100), Galium: 70
galium; 250 g ai/ha
  Plant response rating (0 to 100), Galium: 95
galium; 31 g ai/ha, 13 to 15 days
  Plant response rating, Galium: 50
galium; 62 g ai/ha
  Plant response rating, Galium: 50
soybean; 125 g ai/ha
  Plant response rating (0 to 100), Soybean: 95
soybean; 250 g ai/ha
  Plant response rating (0 to 100), Soybean: 100
soybean; 31 g ai/ha, 13 to 15 days
  Plant response rating, Soybean: 65
soybean; 62 g ai/ha
  Plant response rating, Soybean: 85
waterhemp; 125 g ai/ha
  Plant response rating (0 to 100), Waterhemp: 80
waterhemp; 250 g ai/ha
  Plant response rating (0 to 100), Waterhemp: 90
waterhemp; 31 g ai/ha, 13 to 15 days
  Plant response rating, Waterhemp: 75
waterhemp; 62 g ai/ha
  Plant response rating, Waterhemp: 80
wheat; [3]
  Plant response rating, Wheat: 0
wheat; [5]
  Wheat plant response rating: 50
Italian ryegrass; 125 g ai/ha
  Plant response rating (0 to 100), Ryegrass, Italian: 10
Italian ryegrass; 250 g ai/ha
  Plant response rating (0 to 100), Ryegrass, Italian: 15
Italian ryegrass; 31 g ai/ha, 13 to 15 days
  Plant response rating, Ryegrass, Italian: 0
Italian ryegrass; 62 g ai/ha
  Plant response rating, Ryegrass, Italian: 5
lambsquarters; 125 g ai/ha
  Plant response rating (0 to 100), Lambsquarters: 70
lambsquarters; 250 g ai/ha
  Plant response rating (0 to 100), Lambsquarters: 85
lambsquarters; 31 g ai/ha, 13 to 15 days
  Plant response rating, Lambsquarters: 70
lambsquarters; 62 g ai/ha
  Plant response rating, Lambsquarters: 70
Large (Lg) crabgrass; [3]
  Plant response rating, Crabgrass, Large: 90
Large (Lg) crabgrass; [4]
  Plant response rating, Crabgrass, Large: 100
barnyardgrass
  Plant response rating, Barnyardgrass: 0
corn; [3]
  Plant response rating, Corn: 0
corn; [5]
  Corn plant response rating: 70
sedge, umbrella
  Plant response rating, Sedge, Umbrella: 80
